From patent US10750743B2, “Pyridazinone herbicides” (E.I. DU PONT DE NEMOURS AND COMPANY, priority 2015, dated 2020)

Key:
Assay type in all cases: in vivo
[1] = system: sedge, umbrella (small-flower umbrella sedge, Cyperus difformis); assay: Test B flooded paddy test, visual rating; settings: Flood, 250 g ai/ha, applied to paddy water, rated after 13 to 15 d
Outline: (§1)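 Plants at the 2-leaf stage were flooded to 3 cm above soil, and test compounds were applied directly into the paddy water, which was held at that depth throughout. After 13 to 15 d in a greenhouse, injury was rated visually against untreated controls on a 0–100 scale (0 no effect, 100 complete control).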

[2] = system: ducksalad (Heteranthera limosa); assay: Test B flooded paddy test, visual rating; settings: Flood, 250 g ai/ha, applied to paddy water, rated after 13 to 15 d
Outline: as §1

[3] = system: rice (Oryza sativa); assay: Test B flooded paddy test, visual rating; settings: Flood, 250 g ai/ha, applied to paddy water, rated after 13 to 15 d
Outline: as §1

[4] = system: barnyardgrass (Echinochloa crus-galli); assay: Test B flooded paddy test, visual rating; settings: Flood, 250 g ai/ha, applied to paddy water, rated after 13 to 15 d
Outline: as §1

[5] = system: pigweed (Amaranthus retroflexus); assay: Test A postemergence application, visual injury rating; settings: 0 to 100 scale, 0 no effect, 100 complete control
Outline: (§2)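 Seeds sown in a loam soil–sand blend received a directed preemergence soil spray of test chemical in a non-phytotoxic solvent mixture with surfactant. Postemergence plants were sprayed at 2 to 10 cm, one- to two-leaf stage. After approximately 10 d in greenhouse, injury was visually rated 0 (no effect) to 100 (complete control) against untreated controls.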

[6] = system: wheat (Triticum aestivum); assay: as above; settings: 0 to 100 scale, 0 no effect, 100 complete control
Outline: as §2

[7] = system: corn (Zea mays); assay: as above; settings: 0 to 100 scale, 0 no effect, 100 complete control
Outline: as §2

[8] = system: ryegrass, It. (Italian ryegrass, Lolium multiflorum); assay: as above; settings: 0 to 100 scale, 0 no effect, 100 complete control
Outline: as §2

[9] = system: galium (catchweed bedstraw, Galium aparine); assay: as above; settings: 0 to 100 scale, 0 no effect, 100 complete control
Outline: as §2

[10] = system: kochia (Kochia scoparia); assay: as above; settings: 0 to 100 scale, 0 no effect, 100 complete control
Outline: as §2

[11] = system: barnyardgrass (Echinochloa crus-galli); assay: as above; settings: 0 to 100 scale, 0 no effect, 100 complete control
Outline: as §2

[12] = system: ragweed (common ragweed, Ambrosia elatior); assay: as above; settings: 0 to 100 scale, 0 no effect, 100 complete control
Outline: as §2

[13] = system: Foxtail, Green; assay: as above; settings: 0 to 100 scale, 0 no effect, 100 complete control
[14] = system: blackgrass (Alopecurus myosuroides); assay: as above; settings: 0 to 100 scale, 0 no effect, 100 complete control
Outline: as §2

[15] = system: pigweed (Amaranthus retroflexus); assay: Test A preemergence, directed soil spray, visual injury rating; settings: 0 is no effect, 100 is complete control
Outline: as §2

[16] = system: ryegrass, It. (Italian ryegrass, Lolium multiflorum); assay: as above; settings: 0 is no effect, 100 is complete control
Outline: as §2

[17] = system: kochia (Kochia scoparia); assay: as above; settings: 0 is no effect, 100 is complete control
Outline: as §2

[18] = system: barnyardgrass (Echinochloa crus-galli); assay: as above; settings: 0 is no effect, 100 is complete control
Outline: as §2

[19] = system: ragweed (common ragweed, Ambrosia elatior); assay: as above; settings: 0 is no effect, 100 is complete control
Outline: as §2

[20] = system: Foxtail, Green; assay: as above; settings: 0 is no effect, 100 is complete control

| SMILES | Sedge, Umbrella plant response rating (0 to 100 scale, 0 is no effect, 100 is complete control) [1] | Ducksalad plant response rating (0 to 100 scale, 0 is no effect, 100 is complete control) [2] | Rice plant response rating (0 to 100 scale, 0 is no effect, 100 is complete control) [3] | Barnyardgrass plant response rating (0 to 100 scale, 0 is no effect, 100 is complete control) [4] | Pigweed plant response rating ([5]; 31 g ai/ha) | Pigweed plant response rating ([5]; 125 g ai/ha) | Wheat plant response rating ([6]; 31 g ai/ha) | Wheat plant response rating ([6]; 125 g ai/ha) | Corn plant response rating ([7]; 31 g ai/ha) | Corn plant response rating ([7]; 125 g ai/ha) | Ryegrass, It. plant response rating ([8]; 31 g ai/ha) | Ryegrass, It. plant response rating ([8]; 125 g ai/ha) | Galium plant response rating ([9]; 31 g ai/ha) | Galium plant response rating ([9]; 125 g ai/ha) | Kochia plant response rating ([10]; 31 g ai/ha) | Kochia plant response rating ([10]; 125 g ai/ha) | Barnyardgrass plant response rating ([11]; 31 g ai/ha) | Barnyardgrass plant response rating ([11]; 125 g ai/ha) | Ragweed plant response rating ([12]; 31 g ai/ha) | Ragweed plant response rating ([12]; 125 g ai/ha) | other results |
| --- | --- | --- | --- | --- | --- | --- | --- | --- | --- | --- | --- | --- | --- | --- | --- | --- | --- | --- | --- | --- | --- |
| Cc1cc2ccc(C(F)(F)F)c(-c3c(O)c(C)nn(C)c3=O)c2o1 [Compound 49] | 0 | 0 | 0 | 0 | 90 | 100 | 0 | 0 | 0 | 20 | 10 | 40 | 80 | 90 | 60 | 80 | 0 | 10 | 80 | 90 | Foxtail, Green plant response rating ([13]; 31 g ai/ha): 20; Foxtail, Green plant response rating ([13]; 125 g ai/ha): 30; Blackgrass plant response rating ([14]; 31 g ai/ha): 0; Blackgrass plant response rating ([14]; 125 g ai/ha): 0; Plant response rating (0 to 100 scale), Pigweed ([15]; 31 g ai/ha): 30; Plant response rating (0 to 100 scale), Pigweed ([15]; 125 g ai/ha): 100; Plant response rating (0 to 100 scale), Ryegrass, It. ([16]; 31 g ai/ha): 20; Plant response rating (0 to 100 scale), Ryegrass, It. ([16]; 125 g ai/ha): 50; Plant response rating (0 to 100 scale), Kochia ([17]; 31 g ai/ha): 0; Plant response rating (0 to 100 scale), Kochia ([17]; 125 g ai/ha): 40; Plant response rating (0 to 100 scale), Barnyardgrass ([18]; 31 g ai/ha): 0; Plant response rating (0 to 100 scale), Barnyardgrass ([18]; 125 g ai/ha): 0; Plant response rating (0 to 100 scale), Ragweed ([19]; 31 g ai/ha): 0; Plant response rating (0 to 100 scale), Ragweed ([19]; 125 g ai/ha): 90; Plant response rating (0 to 100 scale), Foxtail, Green ([20]; 31 g ai/ha): 0; Plant response rating (0 to 100 scale), Foxtail, Green ([20]; 125 g ai/ha): 0 |
| Cc1nn(C)c(=O)c(-c2ccc(Cl)c3ccoc23)c1O [Compound 56] | 0 | 0 | 0 | 0 | 0 | 0 | 0 | 0 | 0 | 0 | 50 | 50 | 60 | 100 | 0 | 0 | 0 | 10 | 0 | 0 | Foxtail, Green plant response rating ([13]; 31 g ai/ha): 0; Foxtail, Green plant response rating ([13]; 125 g ai/ha): 10; Blackgrass plant response rating ([14]; 31 g ai/ha): 0; Blackgrass plant response rating ([14]; 125 g ai/ha): 0; Plant response rating (0 to 100 scale), Pigweed ([15]; 31 g ai/ha): 0; Plant response rating (0 to 100 scale), Pigweed ([15]; 125 g ai/ha): 40; Plant response rating (0 to 100 scale), Ryegrass, It. ([16]; 31 g ai/ha): 10; Plant response rating (0 to 100 scale), Ryegrass, It. ([16]; 125 g ai/ha): 70; Plant response rating (0 to 100 scale), Kochia ([17]; 31 g ai/ha): 0; Plant response rating (0 to 100 scale), Kochia ([17]; 125 g ai/ha): 0; Plant response rating (0 to 100 scale), Barnyardgrass ([18]; 31 g ai/ha): 0; Plant response rating (0 to 100 scale), Barnyardgrass ([18]; 125 g ai/ha): 0; Plant response rating (0 to 100 scale), Ragweed ([19]; 31 g ai/ha): 0; Plant response rating (0 to 100 scale), Ragweed ([19]; 125 g ai/ha): 0; Plant response rating (0 to 100 scale), Foxtail, Green ([20]; 31 g ai/ha): 0; Plant response rating (0 to 100 scale), Foxtail, Green ([20]; 125 g ai/ha): 0 |
